Experimental data as given in patent US8445510B2, “Fused bicyclic kinase inhibitors” (OSI Pharmaceuticals, LLC, priority 2011, dated 2013).

Assays:
RON = molecular target: T1, RON (Homo sapiens, UniProt Q04912); assay: sfRON cell mechanistic assay (HeLa), phosphorylated RON ELISA; assay type: cell-based; details: HeLa cells transfected with sfRON; inhibition of phosphorylated RON; four hours incubation; at least duplicate experiments; read-out: sfRON mech IC50
T1 sequence (Q04912 913-1400): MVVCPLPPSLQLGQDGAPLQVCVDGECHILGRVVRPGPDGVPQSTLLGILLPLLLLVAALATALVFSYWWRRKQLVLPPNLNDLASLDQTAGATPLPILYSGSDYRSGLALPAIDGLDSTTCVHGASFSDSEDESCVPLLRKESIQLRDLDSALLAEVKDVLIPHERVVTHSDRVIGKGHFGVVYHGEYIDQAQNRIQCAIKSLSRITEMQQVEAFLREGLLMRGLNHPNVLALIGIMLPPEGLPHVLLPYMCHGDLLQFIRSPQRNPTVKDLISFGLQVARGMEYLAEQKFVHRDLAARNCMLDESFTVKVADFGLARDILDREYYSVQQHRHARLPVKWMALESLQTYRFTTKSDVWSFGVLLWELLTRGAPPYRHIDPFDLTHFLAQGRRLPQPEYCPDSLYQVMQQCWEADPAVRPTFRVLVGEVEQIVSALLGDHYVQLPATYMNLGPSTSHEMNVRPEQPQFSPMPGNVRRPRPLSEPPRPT
How it was run: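 HeLa cells transiently transfected with sfRON plasmid, then exposed 4 h at 37 °C to a 6-point compound series (typically 10 μM to 3 nM, 0.5% DMSO). Phospho-RON (pY1238/1239) in lysates measured by sandwich ELISA with luminescence. IC50 from 4-parameter fit of percent-of-DMSO-control data, at least duplicate runs.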

Karpas-299 cells = assay: Karpas-299 cell proliferation assay (CellTiter-Glo); assay type: cell-based; details: Homo sapiens, 72 h; Karpas-299 cell line (NPM-ALK); 3 days incubation; at least duplicate experiments; read-out: Prolif. IC50

| IC50 (RON) [nM] | IC50 (Karpas-299 cells) [nM] | SMILES |
| --- | --- | --- |
| ≤ 200 | ≤ 50 | COc1ccc(F)c(Cl)c1[C@@H](C)c1c[nH]c2ncc(-c3cn([C@H]4CC[C@H](C(=O)N(C)C)CC4)nc3C)cc12 [Example 23, trans-4-(4-{3-[(1S)-1-(2-chloro-3-fluoro-6-methoxyphenyl)ethyl]-1H-pyrrolo[2,3-b]pyridin-5-yl}-3-methyl-1H-pyrazol-1-yl)-N,N-dimethylcyclohexanecarboxamide] |
| 200 to 1000 | ≤ 50 | CNC(=O)[C@H]1CC[C@H](n2nc(C)c(-c3cnc4[nH]cc([C@H](C)c5c(OC)ccc(F)c5Cl)c4c3)c2C)CC1 [Example 24, trans-4-(4-{3-[(1S)-1-(2-Chloro-3-fluoro-6-methoxyphenyl)ethyl]-1H-pyrrolo[2,3-b]pyridin-5-yl}-3,5-dimethyl-1H-pyrazol-1-yl)-N-methylcyclohexanecarboxamide] |
| ≤ 200 | ≤ 50 | COc1ccc(F)c(Cl)c1[C@@H](C)c1c[nH]c2ncc(-c3cn([C@H]4CC[C@H](O)CC4)nc3C)cc12 [Example 28, trans-4-(4-{3-[(1S)-1-(2-Chloro-3-fluoro-6-methoxyphenyl)ethyl]-1H-pyrrolo[2,3-b]pyridin-5-yl}-3-methyl-1H-pyrazol-1-yl)cyclohexanol] |
